ChEMBL document CHEMBL1201862, “PubChem BioAssay data set” (2004)
Calls of active or inactive are those of the source.

Columns and labels:
[1] = molecular target: T1, Runt-related transcription factor 1/Core-binding factor subunit beta (Homo sapiens, UniProt Q01196+Q13951); assay: Runt domain/CBFb-SMMHC interaction disruptors – biochemical, TR-FRET (AID 1438); assay type: protein assay
[2] = molecular target: T1, Runt-related transcription factor 1/Core-binding factor subunit beta; assay: disruptors of Runt domain/CBFb-SMMHC interaction – biochemical, FRET, Cerulean-Runt, Venus-CBFb-SMMHC, uHTS, […] (AID 1434); assay type: protein assay
Estrogen receptor = molecular target: T2, Estrogen receptor (Homo sapiens, UniProt P03372);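 also: potency for inhibiting coactivator peptide recruitment to the receptor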
T2 sequence (P03372 whole entry): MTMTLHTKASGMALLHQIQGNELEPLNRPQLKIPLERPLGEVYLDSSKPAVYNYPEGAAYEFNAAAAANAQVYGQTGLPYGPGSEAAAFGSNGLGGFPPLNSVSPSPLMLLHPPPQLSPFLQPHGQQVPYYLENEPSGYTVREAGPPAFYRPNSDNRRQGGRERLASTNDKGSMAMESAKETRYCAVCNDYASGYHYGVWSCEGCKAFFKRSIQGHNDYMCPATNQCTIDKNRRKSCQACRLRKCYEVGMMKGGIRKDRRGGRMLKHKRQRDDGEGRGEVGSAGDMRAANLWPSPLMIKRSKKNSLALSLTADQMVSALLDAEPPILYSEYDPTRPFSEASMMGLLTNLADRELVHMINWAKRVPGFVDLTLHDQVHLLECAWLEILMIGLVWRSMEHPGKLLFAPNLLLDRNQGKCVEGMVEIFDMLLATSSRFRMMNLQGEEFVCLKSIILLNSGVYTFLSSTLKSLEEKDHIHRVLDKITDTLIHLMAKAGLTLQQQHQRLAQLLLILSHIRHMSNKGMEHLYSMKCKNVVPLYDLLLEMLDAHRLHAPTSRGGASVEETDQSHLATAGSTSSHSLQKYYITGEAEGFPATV

Troponin, cardiac muscle = Troponin, cardiac muscle (Homo sapiens, UniProt P19429+P45379+P63316); assay: Fluorescence-based biochemical high throughput dose response assay for activators of the calcium sensitivity of cardiac Regulated Thin Filaments (RTF). [Related pubchem assays (depositor defined):AID493008, AID493018, AID504382, AID504383]; assay type: protein-complex assay
[3] = molecular target: T3, Corticotropin-releasing factor receptor 2/Corticotropin-releasing factor-binding protein (Homo sapiens, UniProt P24387+Q13324); assay: activators of CRF receptor 2 with binding protein – uHTS hits, confirmation (AID 602473); assay type: functional; conditions: read-out: EC50_Mean
T3 sequence (Q13324 whole entry): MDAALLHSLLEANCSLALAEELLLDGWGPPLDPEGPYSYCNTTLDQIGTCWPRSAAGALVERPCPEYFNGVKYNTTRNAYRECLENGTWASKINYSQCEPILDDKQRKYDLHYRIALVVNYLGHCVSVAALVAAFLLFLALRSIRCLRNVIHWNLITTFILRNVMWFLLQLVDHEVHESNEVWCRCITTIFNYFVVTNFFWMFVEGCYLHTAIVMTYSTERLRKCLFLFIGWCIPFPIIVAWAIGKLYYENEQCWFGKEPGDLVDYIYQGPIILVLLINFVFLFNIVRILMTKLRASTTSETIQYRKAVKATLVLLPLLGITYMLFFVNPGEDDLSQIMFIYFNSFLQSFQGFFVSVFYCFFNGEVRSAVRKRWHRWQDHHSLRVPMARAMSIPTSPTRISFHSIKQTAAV
T3 sequence (P24387 whole entry): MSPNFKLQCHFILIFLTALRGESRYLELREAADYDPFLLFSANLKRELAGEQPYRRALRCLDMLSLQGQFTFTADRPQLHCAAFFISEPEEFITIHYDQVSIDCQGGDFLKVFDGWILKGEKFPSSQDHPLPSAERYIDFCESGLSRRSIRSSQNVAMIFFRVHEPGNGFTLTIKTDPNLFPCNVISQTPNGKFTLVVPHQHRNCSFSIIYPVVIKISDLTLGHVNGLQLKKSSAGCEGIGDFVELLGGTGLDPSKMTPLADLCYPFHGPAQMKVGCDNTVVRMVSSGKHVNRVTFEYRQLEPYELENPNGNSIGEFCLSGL

[4] = molecular target: Female germline-specific tumor suppressor gld-1 (Caenorhabditis elegans, UniProt Q17339); assay: blockers of GLD-1/TGE RNA complex formation – biochemical, fluorescence polarization, C. elegans, dose response (AID 2802);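 also: fluorescence polarization of labeled TGE RNA bound by purified gld-1 protein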
Protein Rev = Protein Rev (Human immunodeficiency virus type 1 group M subtype B (isolate HXB2)(HIV-1), UniProt P04618); assay: blockers of HIV Rev/RRE RNA complex – biochemical, fluorescence polarization, HIV-1, dose response (AID 434976); set-up: species or system Human immunodeficiency virus 1
[5] = molecular target: T3, Corticotropin-releasing factor receptor 2/Corticotropin-releasing factor-binding protein; assay: Dose Response confirmation of uHTS hits for small molecule antagonists of the CRF-binding protein and CRF-R2 receptor complex.; assay type: functional; conditions: read-out: IC50_Mean
[6] = molecular target: Peroxisome proliferator-activated receptor gamma/Nuclear receptor coactivator 3 (Homo sapiens, UniProt P37231); assay: TR-FRET dose response biochemical High Throughput Screening assay for agonists of the steroid receptor coactivator 3 (SRC-3) recruitment by the peroxisome proliferator-activated receptor gamma (PPAR gamma): non-selective agonists. [Related pubchem assays: 1301 (Confirmation screen.), 1048 (Primary screen.)]; assay type: functional
[7] = molecular target: Peroxisome proliferator-activated receptor gamma/Nuclear receptor coactivator 2 (Homo sapiens, UniProt P37231); assay: (§1) TR-FRET dose response biochemical High Throughput Screening assay for agonists of the steroid receptor coactivator 2 (SRC-2) recruitment by the peroxisome proliferator-activated receptor gamma (PPAR gamma): non-selective agonists. [Related pubchem assays: 1297, 1032 ]; assay type: functional
[8] = molecular target: Peroxisome proliferator-activated receptor gamma/Nuclear receptor coactivator 1 (Homo sapiens, UniProt P37231); assay: as §1, with “1 (SRC-1)” for “2 (SRC-2)”, “assays (depositor defined):AID1300, AID1808, AID504735, AID631]” for “assays: 1297, 1032 ]”; assay type: protein assay
[9] = molecular target: T4, Short transient receptor potential channel 4 (Mus musculus, UniProt Q9QUQ5); assay: calcium entry via TRPC4 opening agents – cell-based, HEK293 TRPC4/mu-opioid, Fluo-4 calcium, dose response (AID 434937); assay type: functional
T4 sequence (Q9QUQ5 whole entry): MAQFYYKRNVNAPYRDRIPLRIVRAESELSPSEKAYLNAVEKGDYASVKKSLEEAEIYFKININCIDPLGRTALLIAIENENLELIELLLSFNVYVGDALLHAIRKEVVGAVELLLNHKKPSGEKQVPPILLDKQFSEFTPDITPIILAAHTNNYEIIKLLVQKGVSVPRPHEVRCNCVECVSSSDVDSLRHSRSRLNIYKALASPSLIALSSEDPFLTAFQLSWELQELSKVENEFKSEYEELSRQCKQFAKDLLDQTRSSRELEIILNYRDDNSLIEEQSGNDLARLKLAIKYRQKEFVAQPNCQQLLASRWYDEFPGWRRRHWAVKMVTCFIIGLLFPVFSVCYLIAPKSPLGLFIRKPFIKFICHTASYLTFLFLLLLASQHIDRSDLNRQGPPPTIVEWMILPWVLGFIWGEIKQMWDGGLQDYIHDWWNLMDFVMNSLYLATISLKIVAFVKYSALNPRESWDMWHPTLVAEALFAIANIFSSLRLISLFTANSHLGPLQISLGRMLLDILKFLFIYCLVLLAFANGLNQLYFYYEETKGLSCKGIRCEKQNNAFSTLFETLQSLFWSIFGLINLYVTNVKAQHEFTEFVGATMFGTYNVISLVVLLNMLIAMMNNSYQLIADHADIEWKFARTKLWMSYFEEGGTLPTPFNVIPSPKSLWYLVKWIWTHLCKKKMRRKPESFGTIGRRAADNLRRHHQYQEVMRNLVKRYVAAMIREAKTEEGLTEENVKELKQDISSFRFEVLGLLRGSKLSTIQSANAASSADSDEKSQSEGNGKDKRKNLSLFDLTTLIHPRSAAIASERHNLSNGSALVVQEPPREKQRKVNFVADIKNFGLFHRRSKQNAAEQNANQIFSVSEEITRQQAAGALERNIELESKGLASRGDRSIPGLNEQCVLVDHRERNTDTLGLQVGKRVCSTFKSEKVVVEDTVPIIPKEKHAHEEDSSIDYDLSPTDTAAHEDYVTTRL

SUMO-activating enzyme [10] = molecular target: T5, SUMO-activating enzyme (Homo sapiens, UniProt Q9UBT2); assay: blockers of UBC9-mediated SUMO conjugation – biochemical, AlphaScreen, SUMOylation inhibitor project, confirmation (AID 2018); assay type: functional
SUMO-activating enzyme [11] = molecular target: T5, SUMO-activating enzyme; assay: blockers of SAE1/SAE2–UBC9 SUMO transfer – biochemical, HTRF, uHTS, primary screen (AID 2006); assay type: protein-complex assay
Ephrin type-A receptor 4 = Ephrin type-A receptor 4 (Mus musculus, UniProt Q03137); assay: EphA4 ligand-binding antagonists – biochemical, colorimetric, mouse EphA4, primary screen (AID 689); assay type: functional
SUMO E1/E2 = SUMO E1/E2 (Homo sapiens, UniProt P63279+Q9UBE0+Q9UBT2); assay: SAR analysis of SUMOylation using HTRF in an in-Vitro dose response assay. [Related pubchem assays (depositor defined):AID2006, AID2011, AID2018, AID2069, AID2658]; assay type: functional
[12] = molecular target: Alkaline phosphatase, placental type (Homo sapiens, UniProt P05187); assay: human placental alkaline phosphatase inhibition – biochemical, luminescence, confirmation (AID 1512); assay type: functional
[13] = molecular target: T6, Alkaline phosphatase, tissue-nonspecific isozyme (Homo sapiens, UniProt P05186); assay: potency against alkaline phosphatase TNAP – biochemical, luminescent, dose response, SAR follow-up (AID 1056)
T6 sequence (P05186 whole entry): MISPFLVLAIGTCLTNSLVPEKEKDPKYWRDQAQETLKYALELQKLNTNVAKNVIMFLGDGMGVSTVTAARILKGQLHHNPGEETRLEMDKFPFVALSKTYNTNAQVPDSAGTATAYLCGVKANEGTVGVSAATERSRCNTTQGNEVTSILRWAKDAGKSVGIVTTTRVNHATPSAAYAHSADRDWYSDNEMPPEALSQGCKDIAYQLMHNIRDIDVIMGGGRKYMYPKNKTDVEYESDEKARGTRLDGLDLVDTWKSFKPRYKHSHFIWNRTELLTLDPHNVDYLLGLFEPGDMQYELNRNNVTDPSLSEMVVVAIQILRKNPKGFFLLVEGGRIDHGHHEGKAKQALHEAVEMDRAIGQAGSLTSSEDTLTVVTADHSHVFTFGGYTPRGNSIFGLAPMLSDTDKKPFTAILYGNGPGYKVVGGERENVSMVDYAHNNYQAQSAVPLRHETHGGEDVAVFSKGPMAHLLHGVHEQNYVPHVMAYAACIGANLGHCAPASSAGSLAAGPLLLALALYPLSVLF

[14] = viability of PTEN-deleted HCT116 cells – cell-based, HCT116 PTEN knockout, dose response (AID 1047); assay type: functional;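 also: HCT116 colon tumor cells with PTEN knocked out; cells exposed to compound for 60 hours before readout; potency for loss of cell viability measured by luminescence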
[15] = THP-1 cell cytotoxicity, dose response, cytotoxicity control for non-replicating M. tuberculosis project (AID 489025); assay type: functional
[16] = HepG2 cell cytotoxicity, dose response, cytotoxicity control for non-replicating M. tuberculosis project (AID 489018); assay type: functional; conditions: Mycobacterium tuberculosis
[17] = Vero E6 cell cytotoxicity, dose response, cytotoxicity control for non-replicating M. tuberculosis project, secondary assay (AID 492998); assay type: functional, VeroE6; conditions: Vero C1008
cells = assay type: functional
[18] = viability of HCT116 lacking mutant beta-catenin – cell-based, human colon tumor, dose response (AID 1045); assay type: functional;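 also: HCT116 colon tumor cells with beta catenin knocked out; cells exposed to compound for 60 hours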
INS1 = assay: INS-1E survival protection against cytokine death – cell-based, luminescence, retest, dose response (AID 449756); assay type: functional; conditions: Rattus norvegicus;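 also: cell death triggered by IL-1 beta plus TNF-alpha plus IFN-gamma mixture; protective hits raise ATP signal compared with cytokine alone wells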
[19] = molecular target: Glyceraldehyde-3-phosphate dehydrogenase (Homo sapiens, UniProt P04406)

CCOc1cc(C2C3=C(CCCC3=O)N(CCC(=O)O)C3=C2C(=O)CCC3)ccc1OS(=O)(=O)c1ccc(C)cc1
IC50 [1]: 30.5 µM (active) | IC50 [2]: 0.629 µM (active)

O=C(Nc1nc(-c2nc3ccccc3s2)cs1)C1COc2ccccc2O1 (configuration not stated)
IC50 (Estrogen receptor): 25.1 µM (active) | EC50 (Troponin, cardiac muscle): > 71.5 µM (inactive)

Cc1cccn2c(=O)c(/C=C(\C#N)C(=O)NCc3ccco3)c(N3CCC(C(N)=O)CC3)nc12
IC50 [1]: > 100 µM (inactive) | IC50 [2]: > 100 µM (inactive)

CCOc1cc(C2C(C(=O)OC)=CN(C3CCCC3)C=C2C(=O)OC)cc(Br)c1O
EC50 [3]: > 53 µM (inactive) | IC50 [4]: > 59.6 µM (inactive) | IC50 (Protein Rev): > 75.4 µM (not active) | IC50 [5]: > 47.1 µM (inactive)

CCCC(C)NC(=O)c1ccc(OCc2ccc(Cl)cc2)c(OC)c1 (configuration not stated)
EC50 [6]: 13.8 µM (not active) | EC50 [7]: > 79.4 µM (not active) | EC50 [8]: 157 µM (inactive)

CCn1c(N2CCN(C(S)=NCC(C)C)CC2)nc2ccccc21
EC50 [9]: 1.68 µM (active)

Cc1ccc(NC(=O)c2ccccc2OCC(=O)Nc2cccc(Cl)c2C)nc1
IC50 (SUMO-activating enzyme [10]): 34.5 µM (active) | IC50 (SUMO-activating enzyme [11]): 17.8 µM (active)

COc1ccc(-n2c(NC(=O)c3ccc(Br)o3)c(C#N)c3nc4ccccc4nc32)cc1
IC50 (Ephrin type-A receptor 4): > 100 µM (not active) | IC50 (SUMO-activating enzyme [10]): 8.09 µM (active) | IC50 (SUMO-activating enzyme [11]): 17.8 µM (active) | IC50 (SUMO E1/E2): 20.2 µM (active)

CCc1nnc(SCC(=O)c2ccc(O)c(O)c2)[nH]1
IC50 [12]: 3.25 µM (active) | IC50 [13]: 10.9 µM (active)

CCn1cc(CN2CCC(n3nccc3NC(=O)CCOc3ccccc3)CC2)cn1
EC50 [9]: 1.19 µM (active)

O=C(Cc1ccccc1)N/N=C/c1ccc([N+](=O)[O-])s1
EC50 [14]: 9.53 µM (active) | CC50 [15]: 26.6 µM (active) | CC50 [16]: 16 µM (active) | CC50 [17]: 12.5 µM (active) | IC50 (cells): 11.1 µM (active) | EC50 [18]: 8.44 µM (active) | AC50 (INS1): 6.38 µM (active)

O=C(c1cc(-c2ccc(Cl)cc2Cl)n[nH]1)N1CCOCC1
IC50 [19]: > 100 µM (not active) | IC50 [12]: > 100 µM (inactive)
